Source: ChEMBL document CHEMBL1147264, “Tricholomalides A-C, new neurotrophic diterpenes from the mushroom Tricholoma sp” (J Nat Prod, 2003)
The source made the active and inactive calls. The rule behind the calls is not given here.

How the values were obtained:
PC-12 [1] = assay: Induction of neurite outgrowth in rat PC12 cells; format: functional, cell-based
HeLa = assay: Cytotoxicity against human HeLa cells at 50 ug/mL after 3 days by MTT assay; format: functional, cell-based
PC-12 [2] = assay: Induction of neurite outgrowth in rat PC12 cells at 100 uM after 2 days by phase-contrast microscopy; format: functional, cell-based
[3] = Inhibition of Na(+)/K(+) ATPase

| SMILES | Activity (PC-12 [1]) | Activity (HeLa) | Activity (PC-12 [2]) | Activity [3] |
| --- | --- | --- | --- | --- |
| CO[C@H]1[C@H]2[C@@H](O)O[C@@H]1[C@]1(C)CC[C@@]3(C(=O)O)CCC(C(C)C)=C3[C@H]1C[C@H]2OC | inactive |  |  |  |
| C=C1CO[C@H]2[C@@H]3C(=O)C[C@@H](C(C)C)[C@]3(C)C[C@H]3OC(=O)C[C@@]3(C)[C@@]12O |  | inactive | Active |  |
| O=C(O)/C(=C1/OCO/C1=C(/C(=O)O)c1ccccc1)c1ccccc1 |  |  |  | Active |
| C=C(CO)[C@]12C=C3C(=O)C[C@@H](C(C)C)[C@]3(C)C[C@@H](O)[C@@]1(C)CC(=O)O2 |  | inactive | Active |  |
| C=C(CO)[C@@]1(O)C=C2C(=O)C[C@@H](C(C)C)[C@]2(C)C[C@H]2OC(=O)C[C@]21C |  | inactive | Active |  |
| CC(C)C1=C2[C@H]3CC=C(C=O)CC(=O)[C@]3(C)CC[C@@]2(C(=O)O)CC1 | inactive |  |  |  |
